Experimental findings from PubChem BioAssay (NCI) are described below.

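Test compounds were applied to cells in 96-well plates for 48 hours at 5 doses. At the GI50, growth is halved. TGI: total growth inhibition.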

Holding throughout (assay): NCI-60 cell line screen, 48 h
Test [1] relates to HCC-2998 colon.
Test [2] concerns NCI-H460 lung.
The subject of test [3] is OVCAR-4 ovarian.
The subject of test [4] is SK-MEL-2 melanoma.
Test [5] relates to SK-MEL-28 melanoma.
Test [6] concerns RXF 393 renal.
For test [7], the system named is UACC-257 melanoma.
Test [8] concerns OVCAR-5 ovarian.
The test system of test [9] is OVCAR-3 ovarian.
Test [10] relates to ACHN renal.

Consider `O=c1c2ccccc2oc2nc3n(c(=O)c12)CCCS3`, for which the TGI in [1], in [2], in [3], in test [4], in [5] and in test [6] was > 100 µM in each case. Further, the TGI in test [7], in test [8], in [9] and in [10] was > 100 µM each time.

As for `Cc1ccc(C)n1-c1ccccc1C1SCCCS1`, the TGI in test [1], in test [2], in test [3], in test [4], in test [5] and in [6] was > 100 µM throughout. Further, the TGI in test [7], in [8], in [9] and in [10] was > 100 µM in each case.

For `O=C(Cc1ccccc1)NCCc1ccc(O)c(O)c1`, the TGI in test [1] is > 100 µM; in [2], > 100 µM; in test [3] it was 28 µM; in [4], 80.1 µM; in test [5], > 100 µM; in [6], > 100 µM. In addition, the TGI in [7], in test [8], in test [9] and in test [10] was > 100 µM each time.

For the compound `O=C(O)[C@H]1[C@@H](C2CCCCC2)O[C@@H](C2CCCCC2)O[C@H]1C(F)(F)F`, the TGI was 38.8 µM in test [1]; 48.4 µM in test [2]; > 100 µM in [3]; 41.4 µM in [5]; 48.4 µM in [6]; 96.1 µM in test [7]. Also, the figures for the TGI in [8], in test [9] and in test [10] were 47.4 µM, 39 µM and 32.7 µM, respectively.

`CCCC(=O)O`: in [1], the GI50 was 10800 µM. Moreover, the TGI is > 18700 µM in [1]; > 18700 µM in test [2]; > 18700 µM in test [3]; > 18700 µM in test [4]; > 18700 µM in test [5]; 16100 µM in [6]. The TGI in test [8] was > 18700 µM; in test [9], > 18700 µM; in test [10], 14500 µM.

As for `Cc1ccc(C2CC(=O)CC(c3ccc(C)cc3)C23C(=O)NC(=O)NC3=O)cc1` (stereo not given), the TGI in test [1], in test [2], in test [3], in test [4], in test [5] and in test [6] was > 100 µM in each case. Also, the TGI in test [7], in [8], in [9] and in test [10] was > 100 µM in each case.

`O=C1Oc2ccccc2C(=O)/C1=C/N1C(=O)N/C(=C\c2ccccc2O)C1=O`: the TGI in [1], in [2], in [3], in test [4], in test [5] and in test [6] was > 100 µM in each case. Besides, the TGI in test [7], in test [8], in test [9] and in test [10] was > 100 µM throughout.

Take `CC1=NN(C(=O)CSc2nnc(SCC(=O)N3N=C(C)CC3(O)c3ccccc3)s2)C(O)(c2ccccc2)C1` (stereo not given): the TGI was > 100 µM in test [1]; > 100 µM in test [2]; > 100 µM in [3]; > 100 µM in [4]; > 100 µM in test [5]; 75.1 µM in [6]. Besides, the TGI in test [7], in test [8], in test [9] and in [10] was > 100 µM each time.

As for `O=C1C2CCCCC2C(=O)N1n1c(Cc2ccc(Cl)cc2)n[nH]c1=O` (stereo not given), the TGI in test [1], in [2], in test [3], in test [4], in test [6] and in test [7] was > 100 µM each time. Further, the TGI in test [8], in [9] and in test [10] was > 100 µM throughout.

For the compound `COC(=O)c1c2c(cc3c1CC1(Cc4ccccc4C1=O)C3)CCC2` (stereo not given), the TGI in [1] is > 100 µM; in [2] it was > 100 µM; in [3], > 100 µM; in test [4], > 100 µM; in test [5] it was > 100 µM; in test [6], 98.4 µM. The TGI in [7], in test [8], in [9] and in test [10] was > 100 µM each time.

Turning to `C1OCC2S[C@@H]3COCO[C@@H]3C2O1` (stereo not given in full), the TGI in test [1], in test [2], in test [3], in [5], in test [6] and in [7] was > 100 µM in each case. For the same compound, the TGI in [8], in [9] and in [10] was > 100 µM throughout.

As to `CCc1nn(CN2CCN(C)CC2)c(=S)n1/N=C\c1ccc(-c2ccc([N+](=O)[O-])cc2)o1`, the TGI in test [1] was > 100 µM; in [2], > 100 µM; in test [3], > 100 µM; in test [4], > 100 µM; in test [6] it was 82.5 µM; in [7], > 100 µM. In addition, the TGI in test [8], in [9] and in [10] was > 100 µM each time.

Turning to `Nc1nc(N)c2ncn(CC3CCC(CO)C3)c2n1` (stereo not given), the TGI in [1], in test [3], in [4], in test [5], in test [6] and in test [7] was > 100 µM each time. Besides, the TGI in test [8], in test [9] and in test [10] was > 100 µM each time.
